From article PMC10342134, “Isolation and Characterization of Poeciguamerin, a Peptide with Dual Analgesic and Anti-Thrombotic Activity from the Poecilobdella manillensis Leech” (International Journal of Molecular Sciences, 2023)
Bridge positions count the residues as written; N and C are the ends. Ends that are not written are not given here.

What was measured:
[1] = biological target: T1, elastase (Homo sapiens, UniProt P08246); assay: Effect on elastase activity (chromogenic substrate assay; Dixon plot Ki); type: biochemical
T1 construct: purchased Sigma-Aldrich E8140
T1 sequence (P08246 30-267): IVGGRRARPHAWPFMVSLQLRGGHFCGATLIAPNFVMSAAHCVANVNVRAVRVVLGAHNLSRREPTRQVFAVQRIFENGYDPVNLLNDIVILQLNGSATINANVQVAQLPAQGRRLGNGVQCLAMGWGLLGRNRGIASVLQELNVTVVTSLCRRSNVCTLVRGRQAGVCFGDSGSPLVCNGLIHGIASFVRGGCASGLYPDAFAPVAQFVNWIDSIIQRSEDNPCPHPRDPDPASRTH
Text: (§1) Thus, we examined the effects of poeciguamerin on proteases such as FXIIa, kallikrein, trypsin, thrombin, FXa, and elastase using appropriate chromogenic substrates.
(§2) Figure 3 Effects of poeciguamerin on elastase and coagulation. Effects of natural poeciguamerin on elastase (A), FXIIa (B), kallikrein (C), FXa (D), trypsin (E), and thrombin (F) enzymatic activities.
(§3) We mixed poeciguamerin with specific chromogenic substrates and proteases to evaluate the effect of poeciguamerin on various enzymatic activities. […] The proteases and different concentrations of natural poeciguamerin (0, 0.5, 1, 2, 10, 20, 40 μM) were incubated in a total volume of 60 μL in buffer (50 mM Tris-HCl pH 7.4) for 5 min at room temperature. Subsequently, a buffer containing the appropriate enzyme substrate was added to a total volume of 100 μL. Using an enzyme marker, GEN CHS v1.09 software detected OD405 at 30-s intervals and recorded for 10 min to calculate enzyme kinetics.

[2] = biological target: T2, FXIIa (Homo sapiens, UniProt P00748); assay: Effect on FXIIa activity (chromogenic substrate assay; Dixon plot Ki); type: biochemical; details: natural poeciguamerin 0-40 μM; FXIIa 10 nM; S-2302 0.2 mM; 50 mM Tris-HCl pH 7.4; 5 min, room temperature; OD405 for 10 min
T2 construct: purchased Enzyme Research Laboratories 1212a
T2 sequence (P00748 373-615 limits assumed): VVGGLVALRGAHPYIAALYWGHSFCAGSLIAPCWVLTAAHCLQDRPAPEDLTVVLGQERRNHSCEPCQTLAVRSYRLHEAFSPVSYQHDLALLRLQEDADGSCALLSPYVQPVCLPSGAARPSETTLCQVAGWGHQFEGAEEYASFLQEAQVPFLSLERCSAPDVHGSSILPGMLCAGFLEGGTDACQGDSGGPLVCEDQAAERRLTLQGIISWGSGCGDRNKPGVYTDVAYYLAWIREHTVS
T2 sequence (P00748 20-372 partner limits assumed): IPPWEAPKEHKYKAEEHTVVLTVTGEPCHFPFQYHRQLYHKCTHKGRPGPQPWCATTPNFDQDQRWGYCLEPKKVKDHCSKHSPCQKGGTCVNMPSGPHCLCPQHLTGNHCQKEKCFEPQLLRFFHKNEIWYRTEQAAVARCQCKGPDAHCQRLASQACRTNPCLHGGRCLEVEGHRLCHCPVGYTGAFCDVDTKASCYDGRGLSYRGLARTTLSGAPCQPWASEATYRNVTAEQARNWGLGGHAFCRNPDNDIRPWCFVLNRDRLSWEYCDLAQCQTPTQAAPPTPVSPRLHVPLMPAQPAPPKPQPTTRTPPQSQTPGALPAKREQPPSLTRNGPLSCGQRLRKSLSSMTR
Text: as §1, §2, §3

[3] = biological target: T3, kallikrein (Homo sapiens, UniProt P03952); assay: Effect on kallikrein activity (chromogenic substrate assay; Dixon plot Ki); type: biochemical; details: natural poeciguamerin 0-40 μM; kallikrein 80 nM; S-2302 0.2 mM; 50 mM Tris-HCl pH 7.4; 5 min, room temperature; OD405 for 10 min
T3 construct: purchased Enzyme Research Laboratories 1303
Text: as §1, §2, §3

[4] = system: FXa; assay: Effect on FXa activity (chromogenic substrate assay); type: biochemical; details: natural poeciguamerin 0-40 μM; FXa 20 nM; S-2222 0.2 mM; 50 mM Tris-HCl pH 7.4; 5 min, room temperature; OD405 for 10 min
Description: as §2
(§4) We mixed poeciguamerin with specific chromogenic substrates and proteases to evaluate the effect of poeciguamerin on various enzymatic activities. These enzymes and substrates included FXIIa (10 nM, 1212a, Enzyme Research Laboratories, South Bend, IN, USA; substrate: 0.2 mM, S-2302, Chromogenix, Milan, Italy), kallikrein (80 nM, 1303, Enzyme Research Laboratories, South Bend, IN, USA; substrate: 0.2 mM, S-2302, Chromogenix, Milan, Italy), trypsin (0.8 μM, T2600000, Sigma-Aldrich, St. Louis, MO, USA; substrate: 0.2 mM, S-2222, Chromogenix, Milan, Italy), thrombin (10 nM, 1002a, Enzyme Research Laboratories, South Bend, IN, USA; substrate: 0.2 mM, S-2238, Chromogenix, Milan, Italy), FXa (20 nM, 1011, Enzyme Research Laboratories, South Bend, IN, USA; substrate: 0.2 mM, S-2222, Chromogenix, Milan, Italy), elastase (0.4 μM, E8140, Sigma-Aldrich, St. Louis, MO, USA; substrate: 0.2 mM, 324696, Sigma-Aldrich, St. Louis, MO, USA), and other proteases were affected. […] Using an enzyme marker, GEN CHS v1.09 software detected OD405 at 30-s intervals and recorded for 10 min to calculate enzyme kinetics.

[5] = system: trypsin; assay: Effect on trypsin activity (chromogenic substrate assay); type: biochemical; details: natural poeciguamerin 0-40 μM; trypsin 0.8 μM; S-2222 0.2 mM; 50 mM Tris-HCl pH 7.4; 5 min, room temperature; OD405 for 10 min
Description: as §2, §4

[6] = system: thrombin; assay: Effect on thrombin activity (chromogenic substrate assay); type: biochemical; details: natural poeciguamerin 0-40 μM; thrombin 10 nM; S-2238 0.2 mM; 50 mM Tris-HCl pH 7.4; 5 min, room temperature; OD405 for 10 min
Description: as §2, §4

[7] = system: mice; assay: Foot-licking mouse model (elastase-induced pain); type: in vivo, mouse (female C57BL/6J); details: poeciguamerin 0, 6, 12 mg/kg i.v. 10 min before 25 μL elastase (6 mg/kg) in right hind paw; phase I 0–10 min and phase II 10–30 min; n = 5 per group
Description: (§5) To evaluate the biological activity of poeciguamerin, we used the foot-licking mouse model and the tail-withdrawal mouse model. In the foot-licking mouse model, we placed the mice in a hot plate apparatus at a temperature of 55 ± 0.5 °C. The pain thresholds of the mice were measured twice every 15 min and hind paw licking was used as the observation parameter. Female mice showing a pain response within 10–30 s were selected and randomly divided into four groups. In the control group, 25 μL elastase (6 mg/kg) was injected into the base of the right hind paw, while in the experimental group, poeciguamerin (0, 6, 12 mg/kg) was injected intravenously 10 min before the elastase injection. […] The cumulative number of foot licks during the first phase (0–10 min) (Figure 5A) and the second phase (10–30 min) (Figure 5B) was recorded. […] The tails of the mice were stretched in hot water at 45 °C and the time of tail flicking was recorded.
(§6) Figure 5 Effects of poeciguamerin on elastase or hot water bath-induced pain. […] The total time mice spent licking the paw was recorded during the I phase (0–10 min) (A) and the II phase (10–30 min) (B). n = 5 per group. Data are expressed as mean ± SEM and were subjected to an unpaired t-test, *** p < 0.001. […] The tails of the mice were stretched in hot water at 45 °C and the time of the tail flick was recorded (C). n = 5 per group. […]

[8] = system: mice; assay: Tail withdrawal mouse model (hot water bath); type: in vivo, mouse (female C57BL/6J); details: poeciguamerin 0, 6, 12 mg/kg, tail vein; water 45 °C; maximum time 15 s; n = 5 per group
Description: as §5, §6

T3 sequence (P03952 391-638 limits assumed): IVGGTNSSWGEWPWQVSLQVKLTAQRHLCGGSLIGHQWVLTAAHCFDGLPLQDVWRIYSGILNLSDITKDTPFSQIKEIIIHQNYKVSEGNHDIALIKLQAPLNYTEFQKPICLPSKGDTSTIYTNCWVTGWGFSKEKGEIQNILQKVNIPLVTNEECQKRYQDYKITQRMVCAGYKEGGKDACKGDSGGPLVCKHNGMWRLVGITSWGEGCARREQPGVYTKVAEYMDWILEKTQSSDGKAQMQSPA
T3 sequence (P03952 20-390 partner limits assumed): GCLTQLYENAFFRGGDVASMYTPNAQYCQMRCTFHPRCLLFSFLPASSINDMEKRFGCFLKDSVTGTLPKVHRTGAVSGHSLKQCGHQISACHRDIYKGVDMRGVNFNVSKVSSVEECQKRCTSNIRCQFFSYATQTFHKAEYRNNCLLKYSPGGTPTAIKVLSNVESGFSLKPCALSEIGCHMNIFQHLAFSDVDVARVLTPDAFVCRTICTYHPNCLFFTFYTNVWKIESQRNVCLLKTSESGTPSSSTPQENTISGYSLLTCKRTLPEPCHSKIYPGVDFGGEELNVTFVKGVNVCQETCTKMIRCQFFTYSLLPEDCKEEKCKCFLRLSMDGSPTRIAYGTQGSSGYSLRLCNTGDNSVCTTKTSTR

VDEKAEVTDDLCGDKTCSGAQVCQNDACVCSPVRCMIMCPNGFKLDENGCEYPCSCA (disulfide 12-23, 17-28, 30-50, 35-54, 39-56) [poeciguamerin]
effect on elastase activity ([1]; natural poeciguamerin 0-40 μM, elastase 0.4 μM, substrate 324696 0.2 mM, 50 mM Tris-HCl pH 7.4, 5 min, room temperature, OD405 for 10 min): dose-dependent inhibition
inhibition of elastase activity by chromatographic peak fractions ([1]; peak fractions of P. manillensis salivary gland secretions (Sephadex G-50, RP-HPLC C8, Mono S FPLC), elastase chromogenic substrate assay): significantly inhibited elastase activity
effect on FXIIa activity [2]: slight inhibition
effect on kallikrein activity [3]: slight inhibition
effect on FXa activity [4]: no inhibitory effects
effect on trypsin activity [5]: no inhibitory effects
effect on thrombin activity [6]: no inhibitory effects
effect on elastase-induced pain (cumulative foot licks) [7]: attenuated this painful response
effect on hot water-induced pain response (tail withdrawal latency) [8]: attenuated this pain response
